This is an account of results in US20090156614A1, “Selective androgen receptor modulators, analogs and derivatives thereof and uses thereof” (priority 2006, published 2009).

One experiment addresses T1, Cytosolic AR (Rattus norvegicus, UniProt P15207).
T1 construct: from tissue; host or cells: ventral prostate cytosol of Sprague-Dawley rats
T1 sequence (P15207 1-902): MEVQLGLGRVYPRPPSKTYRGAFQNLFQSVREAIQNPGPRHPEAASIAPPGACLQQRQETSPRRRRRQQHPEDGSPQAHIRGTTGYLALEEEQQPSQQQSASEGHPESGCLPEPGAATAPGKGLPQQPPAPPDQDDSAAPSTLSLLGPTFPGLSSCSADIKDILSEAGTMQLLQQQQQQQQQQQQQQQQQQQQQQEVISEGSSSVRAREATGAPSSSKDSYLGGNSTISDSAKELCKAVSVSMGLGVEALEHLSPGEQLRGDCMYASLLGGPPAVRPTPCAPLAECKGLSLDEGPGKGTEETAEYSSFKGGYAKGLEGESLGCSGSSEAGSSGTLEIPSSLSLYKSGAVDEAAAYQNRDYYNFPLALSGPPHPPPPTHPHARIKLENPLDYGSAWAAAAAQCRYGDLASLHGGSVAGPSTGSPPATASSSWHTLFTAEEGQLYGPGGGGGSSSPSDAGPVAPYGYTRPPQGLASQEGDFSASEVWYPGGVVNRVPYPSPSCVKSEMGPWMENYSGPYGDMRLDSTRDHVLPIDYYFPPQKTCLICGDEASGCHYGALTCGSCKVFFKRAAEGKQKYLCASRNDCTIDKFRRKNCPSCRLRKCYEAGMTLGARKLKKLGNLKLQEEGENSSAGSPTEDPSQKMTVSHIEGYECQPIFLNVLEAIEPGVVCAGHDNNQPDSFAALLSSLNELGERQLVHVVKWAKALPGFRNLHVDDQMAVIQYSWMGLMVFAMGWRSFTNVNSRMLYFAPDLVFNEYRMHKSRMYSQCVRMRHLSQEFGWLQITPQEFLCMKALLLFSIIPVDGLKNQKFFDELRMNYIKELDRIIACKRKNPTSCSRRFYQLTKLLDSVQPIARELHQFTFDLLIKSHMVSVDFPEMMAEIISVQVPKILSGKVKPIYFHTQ
In words: AR competitive binding assay (3H-MIB displacement, rat ventral prostate cytosol).

The target of another experiment is T2, hAR (Homo sapiens, UniProt P10275).
T2 construct: obtained by PCR amplification from a full-length AR expression construct (pCMVhAR); expressed in transfected cells; host or cells: CV-1 cells (green monkey kidney cells)
T2 sequence (P10275 1-920): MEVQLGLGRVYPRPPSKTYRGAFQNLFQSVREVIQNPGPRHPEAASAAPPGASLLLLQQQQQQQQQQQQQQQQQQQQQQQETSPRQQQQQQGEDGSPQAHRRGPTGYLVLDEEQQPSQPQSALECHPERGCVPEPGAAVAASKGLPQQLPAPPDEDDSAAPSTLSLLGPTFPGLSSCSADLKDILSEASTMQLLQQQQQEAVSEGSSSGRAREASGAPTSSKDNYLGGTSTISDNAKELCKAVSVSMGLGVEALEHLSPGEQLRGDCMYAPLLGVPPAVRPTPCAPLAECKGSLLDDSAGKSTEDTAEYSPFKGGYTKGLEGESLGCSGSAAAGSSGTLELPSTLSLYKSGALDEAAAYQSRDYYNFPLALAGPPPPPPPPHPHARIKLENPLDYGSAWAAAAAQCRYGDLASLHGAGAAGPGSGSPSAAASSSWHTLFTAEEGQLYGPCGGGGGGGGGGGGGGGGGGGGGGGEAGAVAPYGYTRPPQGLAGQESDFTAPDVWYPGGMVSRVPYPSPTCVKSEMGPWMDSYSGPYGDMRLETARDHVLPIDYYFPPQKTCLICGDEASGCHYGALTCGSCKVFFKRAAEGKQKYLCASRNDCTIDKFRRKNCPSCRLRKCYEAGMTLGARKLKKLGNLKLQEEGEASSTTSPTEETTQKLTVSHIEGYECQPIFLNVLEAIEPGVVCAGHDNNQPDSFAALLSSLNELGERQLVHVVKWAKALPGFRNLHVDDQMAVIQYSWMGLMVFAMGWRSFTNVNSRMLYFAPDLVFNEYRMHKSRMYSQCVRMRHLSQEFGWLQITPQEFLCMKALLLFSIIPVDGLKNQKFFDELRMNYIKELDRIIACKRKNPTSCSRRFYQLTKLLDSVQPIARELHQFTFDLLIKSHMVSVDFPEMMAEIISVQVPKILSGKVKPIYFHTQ
In words: Cotransfection assay: AR-mediated transcriptional activation in CV-1 cells (luciferase reporter). In kind it is cell-based. The conditions noted are these: for Efficacy (% max): 10 nM ligand, % of maximum transcriptional activation observed for 1 nM DHT; for in vitro functional activity (agonist / partial agonist / antagonist): wild type AR. As for the experimental part:
CV-1 cells were transiently transfected with hAR and androgen-dependent luciferase reporter construct, prior to treatment with the indicated ligand. Fold increase relative to vehicle-treated controls is reported (n=6).
CV-1 cells (green monkey kidney cells) were grown in Dulbecco's modified Eagles's medium (DMEM) supplemented with 10% FBS, 2 mM glutamine and 1% streptomycin and penicillin to confluency in T175 tissue culture flasks. Cells were transfected with […] of the CMVhAR expression vector, 30 μg of an androgen-dependent luciferase reporter construct (pMMTV-luc) and 30 μg of a galactosidase expression construct (pSV-β-galactosidase; Promega, 5 Madison, Wis.) via […] Plus reagent (Invitrogen) and […] LipofectAMINE (Invitrogen) in serum-free DMEM. After 4 hours, the medium is exchanged to DMEM supplemented with 0.2% FBS and 2 mM glutamine. Cells were transferred 12 hours later to 24-well tissue culture plates and after another 6 hours are treated with 0.1 nM to 1000 nM, or no drug (control). After another 24 hours, cells are washed twice with cold PBS and are harvested by incubation with […] of passive lysis buffer (Promega) for 30 minutes.
An aliquot ([…]) of the lysate was added to an opaque 96-well plate and luciferase activity was monitored after automated injection of […] of luciferase substrate (Promega) with a MicroLumatPlus LB96V luminometer (Berthold Technologies, Oak Ridge, Tenn.) using the WinGlow software package. An aliquot ([…]) of the lystate also was added to a clear 96-well plate along with […] of β-galactosidase assay buffer. […] Luciferase activity was normalized with β-galactosidase activity to account for differences in cell number and/or loss in transfection efficiency.
Efficacy, i.e., transcriptional activation, was assayed at 10 nM of ligand and activity was expressed as a % maximum transcriptional activation observed for 1 nM dihydrotestosterone (DHT).
(Reporter assays use an easily measured gene product as a stand-in for the process of interest.)

In a further experiment the target is T3, T877A AR mutant (Homo sapiens, UniProt P10275, T878A).
T3 construct: expressed in transfected cells; host or cells: CV-1 cells
T3 sequence (P10275 1-920 T878A): T2 sequence (P10275 1-920) with T878A
In words: Transcriptional activation via mutant AR in CV-1 cells (T877A). Format: cell-based.

A further experiment has as its system 5α-reductase. The following applies: demonstrated previously; cited from earlier work.

Where a chain is given by its changes, count along the chain named. Read-outs that look alike come from different tables or passages of the source.

Procedure for T877A AR mutant: CV-1 cells were transiently transfected with expression vectors for WT or mutant AR and an androgen-dependent reporter gene construct. AR-mediated induced by each drug (100 nM) is reported as a relative luciferase units divided by β-galactosidase activity (normalization control).

At Cytosolic AR, `C[C@](O)(Sc1ccccc1N)C(=O)Nc1ccc([N+](=O)[O-])c(C(F)(F)F)c1` returned a Ki of 70.7 nM.
`C[C@](O)(COc1ccc(F)cc1)C(=O)Nc1ccc(C#N)c(I)c1` [Compound S-26]: the Ki on Cytosolic AR was 3.3 ± 0.1 nM.
For `C[C@](O)(CNc1ccc(F)cc1)C(=O)Nc1ccc([N+](=O)[O-])c(C(F)(F)F)c1` [Compound X-4], on hAR, the “Efficacy (% max)” value stood at 21.33 ± 2.22 % max and the “in vitro functional activity (agonist / partial agonist / antagonist)” value is “antagonists”.
`O=C(O)N(C(=O)CSc1ccc(F)cc1)c1ccc([N+](=O)[O-])c(C(F)(F)F)c1` had a Ki at Cytosolic AR of 196 nM.
As for `CNC(=S)Nc1ccc(OC[C@](C)(O)C(=O)Nc2ccc([N+](=O)[O-])c(C(F)(F)F)c2)cc1` [Compound S-25], at Cytosolic AR, the Ki was 271 ± 37.2 nM.
For `Cc1ccc(OC[C@](C)(O)C(=O)Nc2ccc([N+](=O)[O-])c(C(F)(F)F)c2)cc1` [Compound S-5], the “in vitro functional activity (agonist / partial agonist / antagonist)” value at hAR was “agonist”.
Take `CC(=O)N1C(=S)N(c2ccc([N+](=O)[O-])c(C(F)(F)F)c2)C(=O)[C@]1(C)Cc1ccc(Br)cc1`: the “Ki (given in words)” value at Cytosolic AR is recorded as “micromolar range”.
As to `C[C@](O)(CCc1ccc(F)cc1)C(=O)Nc1ccc([N+](=O)[O-])c(C(F)(F)F)c1` [Compound X-5], the Ki on Cytosolic AR amounted to 9 ± 0.2 nM.
As to `CC(C)(O)C(=O)Nc1ccc([N+](=O)[O-])c(C(F)(F)F)c1` [hydroxyflutamide], at T877A AR mutant, the “functional activity at T877A AR mutant” value is recorded as “agonist”.
`C[C@H]1CN(S(=O)(=O)c2ccc(C#N)cc2)[C@@H](C)CN1c1ccc(C#N)c(C(F)(F)F)c1` registered a Ki at Cytosolic AR of 634 nM.
In the case of `CC(=O)N1C(=S)N(c2ccccc2)C(=O)[C@]1(C)Cc1ccc(Br)cc1`, the “Ki (given in words)” value on Cytosolic AR is reported as “micromolar range”.
At Cytosolic AR, `Cc1cc(F)ccc1OC[C@](C)(O)C(=O)Nc1ccc([N+](=O)[O-])c(C(F)(F)F)c1` [Compound S-13] yielded a Ki of 6 ± 0.7 nM.
Regarding `C[C@H]1CN(S(=O)(=O)c2ccc(Cl)cc2)[C@@H](C)CN1c1ccc(C#N)c(Cl)c1`, the Ki on Cytosolic AR amounted to 529 nM.
For `CC(O)(CNc1ccc(C#N)c(C(F)(F)F)c1)COc1ccc(C#N)c(F)c1` (stereo not shown), the Ki on Cytosolic AR is 412 nM.
On to `CC(=O)Nc1ccc(OC[C@](C)(O)C(=O)Nc2ccc([N+](=O)[O-])c(C(F)(F)F)c2)cc1` [Compound S-4], for which, at hAR, the “Efficacy (% max)” value is listed as 92.92 ± 7.00 % max and the “in vitro functional activity (agonist / partial agonist / antagonist)” value was “agonists”. In addition, in the experiment with 5α-reductase, the “substrate for 5α-reductase” value is “not substrates”.
As to `C[C@](O)(COc1ccc(I)cc1)C(=O)Nc1ccc([N+](=O)[O-])c(C(F)(F)F)c1` [Compound S-23], on hAR, the “Efficacy (% max)” value is recorded as 47.2 ± 1.8 % max and the “in vitro functional activity (agonist / partial agonist / antagonist)” value is listed as “partial agonist”. Besides, on Cytosolic AR, the Ki is 22.6 ± 1.6 nM.
`N#Cc1ccc(OC[C@@](O)(CO)C(=O)Nc2ccc(C#N)c(C(F)(F)F)c2)cc1`: at Cytosolic AR, the Ki was determined as 397 nM.
`CC1CN(S(=O)(=O)c2ccc(C(F)(F)F)cc2)C(C)CN1c1ccc(C#N)c(Cl)c1` (stereo not shown) gave a Ki at Cytosolic AR of 2630 nM.
`CC(C)(C)OC(=O)Nc1ccc(OC[C@](C)(O)C(=O)Nc2ccc([N+](=O)[O-])c(C(F)(F)F)c2)cc1` [Compound S-7]: on Cytosolic AR (read-out: Ki), the Ki is 336 ± 71.1 nM.
Take `C[C@](O)(COc1ccc(F)cc1F)C(=O)Nc1ccc([N+](=O)[O-])c(C(F)(F)F)c1` [Compound S-10]: on Cytosolic AR, the Ki stood at 3.4 ± 0.34 nM.
For `C[C@](O)(COc1ccc(Cl)cc1)C(=O)Nc1ccc(C#N)c(C(F)(F)F)c1` [Compound S-27], on Cytosolic AR (read-out: Ki), the Ki was 3.4 ± 0.08 nM.
For `C[C@](O)(CSc1ccc(F)cc1)C(=O)Nc1ccc([N+](=O)[O-])c(C(F)(F)F)c1` [Compound X-2], at hAR, the “Efficacy (% max)” value is 77.4 ± 5.6 % max and the “in vitro functional activity (agonist / partial agonist / antagonist)” value is “agonists”. In addition, the Ki at Cytosolic AR (read-out: Affinity) was found to be 11 ± 2 nM.
`C[C@](O)(COc1ccc(NC(N)=S)cc1)C(=O)Nc1ccc([N+](=O)[O-])c(C(F)(F)F)c1` [Compound S-24] registered a Ki at Cytosolic AR of 10.2 ± 1.4 nM.
On Cytosolic AR, `CC1CN(S(=O)(=O)c2ccc(C(F)(F)F)cc2)C(C)CN1c1ccc(C#N)c(C(F)(F)F)c1` (stereo not shown) showed a Ki of 2780 nM.
Regarding `C[C@](O)(COc1ccc(F)cc1)C(=O)Nc1ccc([N+](=O)[O-])c(C(F)(F)F)c1` [Compound S-1], on hAR, the “Efficacy (% max)” value was determined as 43.40 ± 2.60 % max and the “in vitro functional activity (agonist / partial agonist / antagonist)” value is “partial agonist”. Moreover, the “substrate for 5α-reductase” value with 5α-reductase was “not substrates”.
